In patent US8546383B2, “Chiral fused [1,2]imidazo[4,5-c] ring compounds” (3M Innovative Properties Company, priority 2004, dated 2013):

With `C[C@H](OCc1ccccc1)[C@H]1COCc2nc3c(N)nc4ccccc4c3n21` [Example 40, (11R)-11-[(1S)-1-(benzyloxy)ethyl]-10,11-dihydro-8H-[1,4]oxazino[4′,3′:1,2]imidazo[4,5-c]quinolin-6-amine] as the compound, how does the melting point read?
The melting point was 86.6 to 89.7 °C.

With `C[C@H]1COCc2nc3c(N)nc4ccc(OC(=O)N5CCCC5)cc4c3n21` [Example 53, (11S)-6-Amino-11-methyl-10,11-dihydro-8H-[1,4]oxazino[4′,3′:1,2]imidazo[4,5-c]quinolin-2-ylpyrrolidine-1-carboxylate] as the compound, how does the melting point read?
The melting point was 218 to 219 °C.

Which melting point does the source give for `CC(C)[C@H]1COCc2nc3c(N)nc4ccc(OCc5ccccc5)cc4c3n21` [Example 19, (11S)-2-(Benzyloxy)-11-isopropyl-10,11-dihydro-8H-[1,4]oxazino[4′,3′:1,2]imidazo[4,5-c]quinolin-6-amine] here?
Its melting point is 139 to 141 °C.

Which melting point does the source give for `CC(C)[C@H]1COCc2nc3c(N)nc4cc(OCc5ccccc5)ccc4c3n21` [Example 3, (11S)-3-(Benzyloxy)-11-isopropyl-10,11-dihydro-8H-[1,4]oxazino[4′,3′:1,2]imidazo[4,5-c]quinolin-6-amine] here?
Its melting point is 227 to 229 °C.

With `COc1ccc(C[C@H]2COCc3nc4c(N)nc5ccccc5c4n32)cc1` [Example 49, (11S)-11-(4-Methoxybenzyl)-10,11-dihydro-8H-[1,4]oxazino[4′,3′:1,2]imidazo[4,5-c]quinolin-6-amine] as the compound, how does the melting point read?
The melting point was 115 to 130 °C.

Which melting point does the source give for `C[C@H]1COCc2nc3c(N)nc4ccc(OCCN5CCOCC5)cc4c3n21` [Example 56, (11S)-11-Methyl-2-(2-morpholin-4-ylethoxy)-10,11-dihydro-8H-[1,4]oxazino[4′,3′:1,2]imidazo[4,5-c]quinolin-6-amine] here?
Its melting point is 186 to 188 °C.

With `c1ccc2c(c1)ncc1nc3n(c12)[C@@H](C1CCOCC1)COC3` [Example 42, (11S)-11-Tetrahydro-2H-pyran-4-yl-10,11-dihydro-8H-[1,4]oxazino[4′,3′:1,2]imidazo[4,5-c]quinoline] as the compound, how does the melting point read?
The melting point was 234 to 237 °C.

With `CC(C)[C@H]1COCc2nc3c(N)nc4cc(O)ccc4c3n21` [Example 4, (11S)-6-Amino-11-isopropyl-10,11-dihydro-8H-[1,4]oxazino[4′,3′:1,2]imidazo[4,5-c]quinolin-3-ol] as the compound, how does the melting point read?
The melting point was 210 to 215 °C.

With `Nc1nc2ccccc2c2c1nc1n2[C@@H](CO)COC1` [Example 35, [(11S)-6-Amino-10,11-dihydro-8H-[1,4]oxazino[4′,3′:1,2]imidazo[4,5-c]quinolin-11-yl]methanol] as the compound, how does the melting point read?
Its melting point is 238.6 to 239.8 °C.

For `CC(C)[C@H]1COCc2nc3c(N)nc4cccnc4c3n21` [Example 14, (11S)-11-Isopropyl-10,11-dihydro-8H-[1,4]oxazino[4′,3′:1,2]imidazo[4,5-c][1,5]naphthyridin-6-amine], which melting point is on record?
The melting point was 194 to 196 °C.

With `C[C@H]1COCc2nc3c(N)nc4cc(OCc5ccccc5)ccc4c3n21` [Example 7, (11S)-3-(Benzyloxy)-11-methyl-10,11-dihydro-8H-[1,4]oxazino[4′,3′:1,2]imidazo[4,5-c]quinolin-6-amine] as the compound, how does the melting point read?
Its melting point is 218 to 220 °C.

With `CC1COCc2nc3c(N)nc4ccc(OCc5ccccc5)cc4c3n21` (stereo in doubt) [Example 18, (11R)-2-(Benzyloxy)-11-methyl-10,11-dihydro-8H-[1,4]oxazino[4′,3′:1,2]imidazo[4,5-c]quinolin-6-amine] as the compound, how does the melting point read?
Its melting point is 100 to 120 °C.

Which melting point does the source give for `C[C@@H](O)[C@H]1COCc2nc3c(N)nc4ccccc4c3n21` [Example 39, (1R)-1-[(11R)-6-Amino-10,11-dihydro-8H-[1,4]oxazino[4′,3′:1,2]imidazo[4,5-c]quinolin-11-yl]ethanol] here?
The melting point was 215.3 to 218.6 °C.

For `CC(C)[C@H]1COCc2nc3c(N)nc4ccccc4c3n21` [Example 1, (11S)-1′-Isopropyl-10,11-dihydro-8H-[1,4]oxazino[4′,3′:1,2]imidazo[4,5-c]quinolin-6-amine], which melting point is on record?
The melting point was 249 to 250 °C.

With `Nc1nc2ccccc2c2c1nc1n2[C@@H](Cc2ccc(F)cc2)COC1` [Example 46, (11S)-11-(4-Fluorobenzyl)-10,11-dihydro-8H-[1,4]oxazino[4′,3′:1,2]imidazo[4,5-c]quinolin-6-amine] as the compound, how does the melting point read?
The melting point was 170 to 172 °C.

For `C[C@H]1COCc2nc3c(N)nc4cc(CCS(C)(=O)=O)ccc4c3n21` [Example 61, (11S)-11-Methyl-3-[2-(methylsulfonyl)ethyl]-10,11-dihydro-8H-[1,4]oxazino[4′,3′:1,2]imidazo[4,5-c]quinolin-6-amine], which melting point is on record?
The melting point was 205 to 206 °C.

With `C[C@@H]1CN(S(C)(=O)=O)Cc2nc3c(N)nc4ccccc4c3n21` [Example 32, (11R)-11-Methyl-9-(methylsulfonyl)-8,9,10,11-tetrahydropyrazino[1′,2′:1,2]imidazo[4,5-c]quinolin-6-amine] as the compound, how does the melting point read?
Its melting point is 258 to 261 °C.

For `C[C@H]1COCc2nc3c(N)nc4cc(/C=C/C(=O)N5CCOCC5)ccc4c3n21` [Example 62, (11S)-11-Methyl-3-[(1E)-3-morpholin-4-yl-3-oxoprop-1-enyl]-10,11-dihydro-8H-[1,4]oxazino[4′,3′:1,2]imidazo[4,5-c]quinolin-6-amine], which melting point is on record?
The melting point was greater than 250 °C.

Which melting point does the source give for `C[C@H]1COCc2nc3c(N)nc4ccccc4c3n21` [Example 5, (11S)-11-Methyl-10,11-dihydro-8H-[1,4]oxazino[4′,3′:1,2]imidazo[4,5-c]quinolin-6-amine] here?
Its melting point is 280 to 282 °C.

With `Cc1nc(COc2ccc3nc(N)c4nc5n(c4c3c2)[C@@H](C)COC5)cs1` [Example 52, (11S)-11-Methyl-2-[(2-methyl-1,3-thiazol-4-yl)methoxy]-10,11-dihydro-8H-[1,4]oxazino[4′,3′:1,2]imidazo[4,5-c]quinolin-6-amine] as the compound, how does the melting point read?
Its melting point is 105 to 107 °C.

For `CC(C)(F)[C@@H]1COCc2nc3c(N)nc4ccccc4c3n21` [Example 30], which melting point is on record?
Its melting point is 242 to 244 °C.

Which melting point does the source give for `Nc1nc2ccccc2c2c1nc1n2[C@@H](COCc2ccccc2)COC1` [Example 34, (11S)-11-[(Benzyloxy)methyl]-10,11-dihydro-8H-[1,4]oxazino[4′,3′:1,2]imidazo[4,5-c]quinolin-6-amine] here?
The melting point was 184.6 to 186.2 °C.

For `Nc1nc2ccccc2c2c1nc1n2[C@H](Cc2ccccc2)COC1` (hydrate or solvate) [Example 29], which melting point is on record?
The melting point was 170 to 177 °C.
